In PMC3344384 (Chemistry & biology, 2011):
Values joined by “and” are separate entries in the source; they are usually repeats but may differ in a detail not shown here. Equal entries are not always repeated.

Legend:
[1] = system: Ub-FANCD2 in HEK293T cells; test: Western blot of Ub-FANCD2 level in cells; type: cell-based, human
Ub-PCNA in HEK293T cells = test: Western blot of Ub-PCNA level in cells; type: cell-based, human
USP1/UAF1 [2] = target: USP1/UAF1 (Homo sapiens, UniProt O94782); test: gel-based K63-linked diubiquitin cleavage assay, USP1/UAF1; type: biochemical; details: IC50 USP1/UAF1, K63-linked diubiquitin substrate; NI = no significant inhibition at highest inhibitor concentration of 114 μM
caspase-6 = target: T1, caspase-6 (Homo sapiens, UniProt P55212); test: cysteine protease selectivity, caspase-6; type: biochemical
T1 sequence (P55212 24-179 limits assumed): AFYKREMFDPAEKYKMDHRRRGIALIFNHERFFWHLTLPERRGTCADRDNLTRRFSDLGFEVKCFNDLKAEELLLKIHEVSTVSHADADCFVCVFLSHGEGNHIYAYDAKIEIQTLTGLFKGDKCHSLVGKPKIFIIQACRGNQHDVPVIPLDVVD
T1 sequence (P55212 194-293 limits assumed): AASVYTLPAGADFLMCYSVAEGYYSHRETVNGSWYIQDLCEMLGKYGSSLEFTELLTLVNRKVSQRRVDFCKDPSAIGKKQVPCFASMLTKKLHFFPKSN

USP5 = target: T2, USP5 (Homo sapiens, UniProt P45974); test: K63-linked diubiquitin cleavage assay, USP5
T2 sequence (P45974 1-858): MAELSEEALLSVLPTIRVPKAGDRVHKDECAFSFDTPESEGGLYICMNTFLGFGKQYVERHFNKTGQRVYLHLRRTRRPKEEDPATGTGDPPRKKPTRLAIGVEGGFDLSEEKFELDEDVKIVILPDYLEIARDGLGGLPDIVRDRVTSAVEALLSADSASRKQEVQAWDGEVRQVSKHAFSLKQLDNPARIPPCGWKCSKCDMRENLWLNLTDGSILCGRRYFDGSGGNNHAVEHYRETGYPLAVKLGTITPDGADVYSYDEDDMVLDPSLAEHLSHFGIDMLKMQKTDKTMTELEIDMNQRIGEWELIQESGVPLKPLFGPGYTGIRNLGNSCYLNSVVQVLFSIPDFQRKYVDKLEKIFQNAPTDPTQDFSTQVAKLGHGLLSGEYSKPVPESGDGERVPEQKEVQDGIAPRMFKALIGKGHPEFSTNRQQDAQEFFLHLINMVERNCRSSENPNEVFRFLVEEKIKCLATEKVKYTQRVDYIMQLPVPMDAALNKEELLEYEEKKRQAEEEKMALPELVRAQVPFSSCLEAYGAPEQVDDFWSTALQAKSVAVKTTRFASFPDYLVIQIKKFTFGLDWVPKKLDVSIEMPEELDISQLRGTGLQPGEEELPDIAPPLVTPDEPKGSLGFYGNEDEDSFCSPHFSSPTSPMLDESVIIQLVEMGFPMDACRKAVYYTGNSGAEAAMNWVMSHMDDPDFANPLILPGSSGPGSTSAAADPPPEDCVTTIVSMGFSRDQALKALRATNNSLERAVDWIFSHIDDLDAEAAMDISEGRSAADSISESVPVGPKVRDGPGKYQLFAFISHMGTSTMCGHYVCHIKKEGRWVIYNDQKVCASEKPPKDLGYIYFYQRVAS

caspase-1 = target: T3, caspase-1 (Homo sapiens, UniProt P29466); test: cysteine protease selectivity, caspase-1; type: biochemical
T3 sequence (P29466 120-297 limits assumed): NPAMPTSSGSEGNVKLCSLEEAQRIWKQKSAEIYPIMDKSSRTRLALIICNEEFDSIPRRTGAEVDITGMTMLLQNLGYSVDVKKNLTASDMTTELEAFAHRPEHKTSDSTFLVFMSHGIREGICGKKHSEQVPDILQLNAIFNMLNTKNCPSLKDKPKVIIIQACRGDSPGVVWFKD
T3 sequence (P29466 317-404 limits assumed): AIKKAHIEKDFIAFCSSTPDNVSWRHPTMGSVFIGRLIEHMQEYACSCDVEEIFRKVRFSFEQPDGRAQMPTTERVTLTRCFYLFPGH

papain = target: T4, papain (Carica papaya, UniProt P00784); test: cysteine protease selectivity, papain; type: biochemical
T4 sequence (P00784 134-345): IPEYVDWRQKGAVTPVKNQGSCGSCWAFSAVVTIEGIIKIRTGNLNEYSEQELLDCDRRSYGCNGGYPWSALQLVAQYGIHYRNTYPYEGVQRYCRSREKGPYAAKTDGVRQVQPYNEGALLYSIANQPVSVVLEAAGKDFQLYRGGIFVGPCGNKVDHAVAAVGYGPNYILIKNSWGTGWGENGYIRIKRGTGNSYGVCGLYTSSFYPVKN

caspase-3 = target: T5, caspase-3 (Homo sapiens, UniProt P42574); test: cysteine protease selectivity, caspase-3; type: biochemical
T5 sequence (P42574 29-175 limits assumed): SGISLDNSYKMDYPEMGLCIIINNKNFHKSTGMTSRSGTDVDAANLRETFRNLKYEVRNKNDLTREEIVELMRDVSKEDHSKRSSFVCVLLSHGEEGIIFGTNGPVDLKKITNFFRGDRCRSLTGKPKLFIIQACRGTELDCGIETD
T5 sequence (P42574 176-277 limits assumed): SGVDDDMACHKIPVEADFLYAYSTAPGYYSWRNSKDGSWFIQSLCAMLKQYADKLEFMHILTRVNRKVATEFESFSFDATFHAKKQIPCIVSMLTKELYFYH

USP1/UAF1 [3] = target: USP1/UAF1 (Homo sapiens, UniProt O94782+Q8TAF3); test: reversibility of inhibition by rapid dilution; details: incubation at 10 times IC50, 100-fold rapid dilution
USP46/UAF1 = USP46/UAF1 (Homo sapiens, UniProt P62068); test: K63-linked diubiquitin cleavage assay, USP46/UAF1; type: biochemical
Chain of USP46/UAF1 (P62068 whole entry): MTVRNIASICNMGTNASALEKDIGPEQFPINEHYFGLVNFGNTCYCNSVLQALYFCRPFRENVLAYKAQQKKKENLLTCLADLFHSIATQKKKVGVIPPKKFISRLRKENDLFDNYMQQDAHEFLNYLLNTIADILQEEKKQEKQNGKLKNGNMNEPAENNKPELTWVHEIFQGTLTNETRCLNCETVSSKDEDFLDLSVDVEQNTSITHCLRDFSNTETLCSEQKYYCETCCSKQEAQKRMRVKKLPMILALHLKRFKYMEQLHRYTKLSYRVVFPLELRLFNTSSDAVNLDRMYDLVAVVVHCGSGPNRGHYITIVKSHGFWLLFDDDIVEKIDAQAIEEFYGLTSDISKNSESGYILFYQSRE
Chain of USP46/UAF1 (Q8TAF3 whole entry partner): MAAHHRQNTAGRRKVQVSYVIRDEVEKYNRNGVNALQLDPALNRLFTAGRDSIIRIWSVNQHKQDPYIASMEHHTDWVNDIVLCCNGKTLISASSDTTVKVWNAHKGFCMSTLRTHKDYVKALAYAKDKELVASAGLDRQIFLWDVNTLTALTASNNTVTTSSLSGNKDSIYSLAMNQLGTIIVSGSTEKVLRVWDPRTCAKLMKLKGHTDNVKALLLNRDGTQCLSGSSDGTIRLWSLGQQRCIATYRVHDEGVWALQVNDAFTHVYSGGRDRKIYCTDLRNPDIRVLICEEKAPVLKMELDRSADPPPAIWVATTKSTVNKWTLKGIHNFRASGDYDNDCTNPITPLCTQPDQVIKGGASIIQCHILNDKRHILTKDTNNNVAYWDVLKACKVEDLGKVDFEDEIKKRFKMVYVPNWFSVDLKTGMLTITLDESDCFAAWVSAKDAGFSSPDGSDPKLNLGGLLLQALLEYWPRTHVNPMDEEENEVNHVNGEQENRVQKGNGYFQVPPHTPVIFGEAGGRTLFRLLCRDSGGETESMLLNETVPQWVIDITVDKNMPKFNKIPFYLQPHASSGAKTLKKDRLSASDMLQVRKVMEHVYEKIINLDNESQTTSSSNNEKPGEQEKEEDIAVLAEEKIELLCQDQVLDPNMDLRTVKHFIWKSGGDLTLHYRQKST

Chain of USP1/UAF1 (Homo sapiens, UniProt O94782) (O94782 whole entry): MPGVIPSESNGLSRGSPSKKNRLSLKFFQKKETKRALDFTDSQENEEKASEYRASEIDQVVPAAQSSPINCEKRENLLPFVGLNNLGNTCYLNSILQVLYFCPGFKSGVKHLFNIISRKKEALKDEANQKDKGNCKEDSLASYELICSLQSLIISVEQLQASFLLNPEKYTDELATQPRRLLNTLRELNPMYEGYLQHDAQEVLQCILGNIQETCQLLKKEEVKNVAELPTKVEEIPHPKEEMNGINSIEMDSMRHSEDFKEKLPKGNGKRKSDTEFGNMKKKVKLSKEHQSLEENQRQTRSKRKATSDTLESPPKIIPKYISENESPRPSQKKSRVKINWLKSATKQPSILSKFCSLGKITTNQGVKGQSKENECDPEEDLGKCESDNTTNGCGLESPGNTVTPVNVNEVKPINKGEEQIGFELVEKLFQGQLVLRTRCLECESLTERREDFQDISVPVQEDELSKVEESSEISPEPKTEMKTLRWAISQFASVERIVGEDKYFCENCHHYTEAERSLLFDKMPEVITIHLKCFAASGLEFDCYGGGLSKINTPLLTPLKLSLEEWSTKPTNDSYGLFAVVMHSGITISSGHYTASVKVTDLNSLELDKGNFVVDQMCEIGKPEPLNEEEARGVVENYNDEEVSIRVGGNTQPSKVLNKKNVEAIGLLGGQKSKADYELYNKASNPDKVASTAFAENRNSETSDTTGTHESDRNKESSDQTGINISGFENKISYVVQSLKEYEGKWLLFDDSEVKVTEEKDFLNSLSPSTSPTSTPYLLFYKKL
Chain of USP1/UAF1 (Homo sapiens, UniProt O94782) (Q8TAF3 whole entry, further chain): as the sequence (Q8TAF3 whole entry partner) above
Chain of USP1/UAF1 (Homo sapiens, UniProt O94782+Q8TAF3) (O94782 whole entry): as the sequence (O94782 whole entry) above
Chain of USP1/UAF1 (Homo sapiens, UniProt O94782+Q8TAF3) (Q8TAF3 whole entry): as the sequence (Q8TAF3 whole entry partner) above

SMILES	percentage of FANCD2 monoubiquitinated [1]	monoubiquitination of PCNA, single agent (Ub-PCNA in HEK293T cells)	IC50 (USP1/UAF1 [2])	IC50 (caspase-6)	IC50 (USP5)	IC50 (caspase-1)	IC50 (papain)	IC50 (caspase-3)	reversibility of inhibition (USP1/UAF1 [3])	IC50 (USP46/UAF1)
N.N.[Cl][Pt][Cl] [Cisplatin, cisplatin]	approximately 25%	a small, but significant, percent of Ub-PCNA was detected	–	–	–	–	–	–	–	–
CC(=O)c1c(O)c(C)c(O)c(Cc2c(O)c3c(c(C(=O)/C=C/c4ccccc4)c2O)OC(C)(C)C=C3)c1O [Rottlerin, rottlerin]	–	–	≤ 8 µM and 6 to 34 µM	5 to 45 µM	> 114 µM	5 to 45 µM	5 to 45 µM	5 to 45 µM	irreversible inhibitor	15 ± 1 µM
